Values of other authors as cited in patent US20200323770A1, “WOUND DEBRIDEMENT COMPOSITION AND METHOD FOR TREATING WOUNDS” (Hollister Incorporated, priority 2017, published 2020).

Settings: in vitro; increasing papain concentrations 200-1,600 USP units/mg in 10% urea

papain
increased: collagenolysis | elastinolysis | fibrinolysis
